Tests used:
[1] = test system: peripheral blood lymphocyte (PBL) count; test: Peripheral lymphocyte lowering (PLL) in rats; type: in vivo, Sprague-Dawley rats; conditions: Rattus norvegicus, oral, 5 hours after administration, read-out: IC50 of peripheral blood lymphocyte (PBL) count decrease
Description: (§1) Mice: SPF female C57BL/6j mice, weighing 19-22 g. Rats: Male Sprague-Dawley rats, weighing 200-220 g. Feeding environment: the temperature was 23±2° C., the relative humidity was 40-70%, and the lighting time was at 7:00 in the morning to 7:00 in the evening; animals were freely fed with common feed and sterilized drinking water. All animal experiments were approved by the animal ethics committee; all animal experiments were carried out in accordance with the relevant SOP requirements of animal room. Animals were reared adaptively for one week before the experiment.
(§2) Animals were administered orally with a volume of 10 mL/kg. The vehicle for administration was 0.5% DMSO+0.5% MC. Animals were anesthetized with isoflurane 5 hours after administration, and 100-150 μL of peripheral blood was collected through the eye socket in EP tubes, placed on ice. The lymphocyte count of blood analysis was detected by XT-2000i automated hematology analyzer within 30 minutes. Another 20 μL of whole blood was diluted with 40 μL of DDW, and snap frozen in liquid nitrogen, the concentration of the compounds in blood was detected.

[2] = test system: experimental autoimmune encephalomyelitis (EAE); test: Experimental autoimmune encephalomyelitis (EAE) in mice; type: in vivo, C57BL/6J mice; conditions: days 5-37
Description: Female C57BL/6J mice were immunized with MOG35-55 antigen emulsion. 2 hours after immunization, each animal was injected with 200 ng/100 μL PTX solution intraperitoneally. After 24 hours (the second day), the same dose of PTX solution was injected once again. On the fifth day, the animals in each group began to administer the drug, and each group was given the drug by gavage, with a dosage of 10 mL/kg, once a day for 33 consecutive days (days 5-37). During the experiment, general clinical observation was carried out twice a day, and the weight and EAE clinical scores were measured once a day after administration. The score was divided into five grades: (0. normal mice, no obvious disease; 1. tail weakness or hind limb weakness; 2. tail weakness and hind limb weakness; 3. hemiplegia of hind limbs; 4. complete paralysis of hind limbs; 5, died of EAE or euthanasia in near-death state).

[3] = In vivo pharmacokinetics in rats, intravenous injection and oral administration; set-up: species or system Sprague Dawley rats; conditions: rat; for AUC(0-inf) / clearance / half-life / Cmax: male, Sprague-Dawley, plasma
Description: In this experimental embodiment, in vivo pharmacokinetic evaluation was performed in rats by intravenous injection and oral administration.
Experimental methods and conditions: male Sprague Dawley rats were given the test compounds 1 mg/kg (solvent 5% DMSO/15% Solutol/80% Saline) by intravenous injection and 1 mg/kg (solvent 0.5% MC) by oral gavage respectively. 5 min, 15 min, 30 min, 1 hr, 2 hr, 4 hr, 6 hr, 8 hr, 24 hr after administration, blood was collected from submandibular vein, each sample was collected about 0.20 mL, and heparin sodium was used for anti coagulation. After collection, the sample was placed on ice, and the blood was centrifuged to be measured within one hour. Blood drug concentration in plasma was detected by liquid chromatography tandem mass spectrometry (LC/MS/MS), and the pharmacokinetic parameters were calculated by Phoenix WinNonlin software.

[4] = test system: peripheral blood lymphocyte (PBL) count; test: Peripheral lymphocyte lowering (PLL) in mice; type: in vivo, C57BL/6j mice; conditions: Mus musculus, oral, 5 hours after administration, read-out: IC50 of peripheral blood lymphocyte (PBL) count decrease
Description: as §1, §2

[5] = cited from earlier work
DNBS-induced colitis = test: Rat colitis model induced by DNBS; type: in vivo, Wistar rats; conditions: DNBS rats
Excerpt: The Wistar rat ulcerative enteritis model induced by DNBS (2, 4-dinitrobenzenesulfonic acid) is also one of the commonly used models for development of enteritis drugs. DNBS combines with intestinal tissue protein to form complete antigen, which increases vascular permeability, activates inflammatory transmitters, increases fibrinolytic activity, and makes the body produce immune response against intestinal mucosa, resulting in persistent ulcer and inflammation of intestinal mucosa in rats.
The experimental animals were Wistar rats, male, 5-6 weeks old, 140-160 g. The animals were kept in SPF room with a room temperature of 20-26° C., a humidity of 40-70%, fluorescent lamp lighting, 12 hours of lighting (08:00-20:00) and 12 hours of no lighting, with 2-5 animals in each cage (same administration group). […]
Drug treatment: 4 hours after modeling, animals were given with different concentrations of drugs or 0.5% methylcellulose by gavage, 10 mL/kg, once a day for 7 consecutive days. […] After administration, the animals were euthanized, colon tissues were collected, colon length, colon weight and ulcer area were measured, and colon injury in rats was evaluated macroscopically, so as to evaluate the therapeutic effect of the tested drugs on DNBS-induced inflammatory colitis model in rats.

[6] = intravenous administration 1 mg/kg

Compound	IC50 [1]	disease symptoms (EAE clinical score) ([2]; 1 mg/kg by gavage once a day)	AUC(0-inf) [3, 6]	clearance [3, 6]	half-life [3, 6]	AUC(0-inf) ([3]; oral administration 1 mg/kg)	Cmax ([3]; oral administration 1 mg/kg)	half-life ([3]; oral administration 1 mg/kg)	F ([3]; oral administration 1 mg/kg)	IC50 [4]	half-life in human body [5]	disease symptoms (EAE clinical score) ([2]; 5 mg/kg by gavage once a day)	area of colonic ulcer (DNBS-induced colitis; 0.2 mg/kg by gavage once a day for 7 days)	area of colonic ulcer (DNBS-induced colitis; 1 mg/kg by gavage once a day for 7 days)
O=C(O)CCc1[nH]c2ccc(OCc3ccc(C4CCCC4)c(C(F)(F)F)c3)cc2c1Cl [Compound 13]	4.1 nM	significantly reduce	4750 ng·h/mL	3.5 mL/min/kg	2.8 h	1190 ng·h/mL	184 ng/mL	3.9 h	17.4%	18.5 nM	–	–	–	–
CCCCCCCCc1ccc(CCC(N)(CO)CO)cc1 [FTY720, Fingolimod]	–	–	–	–	–	–	–	–	–	–	140 to 220 h	–	–	–
Cc1c(CCC(=O)O)[nH]c2ccc(OCc3ccc(C4CCCC4)c(C(F)(F)F)c3)cc12 [Compound 16]	5.3 nM	significantly reduce	4140 ng·h/mL	4.17 mL/min/kg	1.4 h	649 ng·h/mL	162 ng/mL	2.9 h	13.3%	24.7 nM	–	significantly reduce	significantly reduce	significantly reduce

Reference: patent publication US12195457B2, “Aromatic ring derivative as immunoregulation and preparation method and application of aromatic ring derivative” (SHANGHAI JEMINCARE PHARMACEUTICALS CO., LTD, priority 2018, dated 2025)
